According to publication PMC6843404, “Conferring the Metabolic Self-Sufficiency of the CAM Plasmid of Pseudomonas putida ATCC 17453: The Key Role of Putidaredoxin Reductase” (Microorganisms, 2019):

Legend:
Fred = biological target: T1, Fred (Pseudomonas putida, UniProt M4YFG7); experiment: spectrophotometric NADH oxidation at […] nm; assay type: biochemical; details: anaerobic
T1 construct: native, highly purified, chromosome-coded, 36 kDa homodimer
T1 sequence (M4YFG7 2-170): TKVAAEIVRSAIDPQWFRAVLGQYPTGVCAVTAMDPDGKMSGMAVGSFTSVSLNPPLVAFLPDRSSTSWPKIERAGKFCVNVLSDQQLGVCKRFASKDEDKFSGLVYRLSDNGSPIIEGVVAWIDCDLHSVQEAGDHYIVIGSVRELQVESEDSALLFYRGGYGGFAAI

PdR = biological target: T2, PdR (Pseudomonas putida, UniProt P16640); experiment: spectrophotometric NADH oxidation at […] nm; assay type: biochemical; details: anaerobic
T2 construct: gene camA
T2 sequence (P16640 1-422): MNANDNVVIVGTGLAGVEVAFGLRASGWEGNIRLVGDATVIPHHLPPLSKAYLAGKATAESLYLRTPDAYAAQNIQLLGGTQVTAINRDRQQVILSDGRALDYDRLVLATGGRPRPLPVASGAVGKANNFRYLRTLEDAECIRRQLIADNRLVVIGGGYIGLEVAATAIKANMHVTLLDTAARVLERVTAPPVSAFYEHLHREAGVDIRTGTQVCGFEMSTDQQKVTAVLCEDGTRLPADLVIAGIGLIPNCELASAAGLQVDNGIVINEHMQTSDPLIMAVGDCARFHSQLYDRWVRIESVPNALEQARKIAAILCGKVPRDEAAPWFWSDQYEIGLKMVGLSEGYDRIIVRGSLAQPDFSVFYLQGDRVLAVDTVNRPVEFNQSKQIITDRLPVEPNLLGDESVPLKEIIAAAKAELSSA

SMILES | spectrophotometric NADH oxidation at 340 nm (Fred; NADH as co-substrate) | spectrophotometric NADH oxidation at 340 nm (PdR; NADH as co-substrate) | spectrophotometric NADH oxidation at 340 nm (Fred; FMN as co-substrate) | spectrophotometric NADH oxidation at 340 nm (PdR; FMN as co-substrate)
Cc1cc2nc3c(=O)[nH]c(=O)nc-3n(C[C@H](O)[C@H](O)[C@H](O)COP(=O)(O)O)c2cc1C [FMN] | measuring the initial rate of enzyme-catalysed reduction of FMN by NADH | measuring the initial rate of enzyme-catalysed reduction of FMN by NADH |  | 
NC(=O)C1=CN([C@@H]2O[C@H](COP(=O)(O)OP(=O)(O)OC[C@H]3O[C@@H](n4cnc5c(N)ncnc54)[C@H](O)[C@@H]3O)[C@@H](O)[C@H]2O)C=CC1 [NADH] |  |  | measuring the initial rate of enzyme-catalysed reduction of FMN by NADH | measuring the initial rate of enzyme-catalysed reduction of FMN by NADH
